# Results: BindingDB's records for doi:10.1016/s0960-894x(98)00214-5 (Glaxowellcome Medicines Research Center, 1999)
# Biological target: HIV-2 reverse transcriptase (Human immunodeficiency virus 2)
# Test: Compound was evaluated for inhibition of HIV-2 reverse transcriptase using rC.dG and [3H]-dGTP as substrates at 100 ug/mL
row,Compound,IC50 [µM]
1,O=C(CCCCCCC(=O)Nc1ccc(Br)cc1C(=O)O)Nc1ccc(Br)cc1C(=O)O [5-bromo-2-[6-(4-bromo-2-carboxyphenylcarbamoyl)hexylcarboxamido]benzoic acid],7.4

# Biological target: HIV-2 reverse transcriptase (Human immunodeficiency virus 2)
# Test: as above
# Remark: another data set of the same source
row,Compound,IC50 [µM]
1,O=C(Nc1ccc(Br)cc1C(=O)O)c1ccc(C(=O)Nc2ccc(Br)cc2C(=O)O)nc1 [5-bromo-2-{[(5-{[(4-bromo-2-carboxyphenyl)amino]carbonyl}pyridin-2-yl)carbonyl]amino}benzoic acid],5.5
2,O=C(CCCCC(=O)Nc1ccc(Br)cc1C(=O)O)Nc1ccc(Br)cc1 [5-Bromo-2-[5-(4-bromo-phenylcarbamoyl)-pentanoylamino]-benzoic acid],32
3,O=C(CCCCC(=O)Nc1ccccc1C(=O)O)Nc1ccccc1C(=O)O [2-({6-[(2-carboxyphenyl)amino]-6-oxohexanoyl}amino)benzoic acid],9
4,Cc1ccc(NC(=O)CCCCC(=O)Nc2ccc(C)cc2C(=O)O)c(C(=O)O)c1 [2-[4-(2-carboxy-4-methylphenylcarbamoyl)butylcarboxamido]-5-methylbenzoic acid],9.2

# Biological target: HIV-2 reverse transcriptase (Human immunodeficiency virus 2)
# Test: Evaluated for inhibition of HIV-2 reverse transcriptase
row,Compound,IC50 [µM]
1,COc1ccc(NC(=O)CCCCC(=O)Nc2ccc(OC)cc2C(=O)O)c(C(=O)O)c1 [2-[4-(2-carboxy-4-methoxyphenylcarbamoyl)butylcarboxamido]-5-methoxybenzoic acid],4.3
2,O=C(CCCC(=O)Nc1ccc(Cl)cc1C(=O)O)Nc1ccc(Cl)cc1C(=O)O [2-({5-[(2-carboxy-4-chlorophenyl)amino]-5-oxopentanoyl}amino)-5-chlorobenzoic acid],9.6
3,O=C(CCCCC(=O)Nc1ccc(Br)cc1C(=O)O)Nc1ccc(Br)cc1C(=O)O [5-bromo-2-({6-[(4-bromo-2-carboxyphenyl)amino]-6-oxohexanoyl}amino)benzoic acid],1.7
4,O=C(CCCCC(=O)Nc1ccc(Cl)cc1C(=O)O)Nc1ccc(Cl)cc1C(=O)O [2-({6-[(2-carboxy-4-chlorophenyl)amino]-6-oxohexanoyl}amino)-5-chlorobenzoic acid],1.8
5,CSc1ccc(NC(=O)CCCCC(=O)Nc2ccc(SC)cc2C(=O)O)c(C(=O)O)c1 [2-[4-(2-carboxy-4-methylsulfanylphenylcarbamoyl)butylcarboxamido]-5-methylsulfanylbenzoic acid],6.9
